19 compounds from patent US20230286958A1, “PLASMA KALLIKREIN INHIBITORS” (Merck Sharp & Dohme LLC, priority 2020, published 2023) can be followed below.

One test has as its target Human plasma kallikrein (Homo sapiens (Human), UniProt P03952). In words: Kallikrein Assay (fluorogenic substrate Acetyl-K-P-R-AFC). In kind it is biochemical. The note with it: Plasma Kallikrein (PKal). Put shortly:
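Ki is derived from IC50 with the Cheng-Prusoff equation, and IC50 from the inflection point of a four-parameter logistic curve. The rate of AFC release is read with 0.5 nM purified enzyme and […] substrate at room temperature or 37 °C.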

For another test, the target named is human Factor XIa (Homo sapiens (Human), UniProt P03951). In words: Factor XIa Assay (fluorogenic substrate GPR-AFC). It counts as biochemical. To be noted: Factor XIa (FXIa).

Molecules are shown by their SMILES. A value given as a limit tells only on which side of the number the result lay.

By IC50 is commonly meant the point on the concentration scale where inhibition reaches its midpoint. Lower therefore signals higher potency.

Chain of Human plasma kallikrein (P03952 391-638): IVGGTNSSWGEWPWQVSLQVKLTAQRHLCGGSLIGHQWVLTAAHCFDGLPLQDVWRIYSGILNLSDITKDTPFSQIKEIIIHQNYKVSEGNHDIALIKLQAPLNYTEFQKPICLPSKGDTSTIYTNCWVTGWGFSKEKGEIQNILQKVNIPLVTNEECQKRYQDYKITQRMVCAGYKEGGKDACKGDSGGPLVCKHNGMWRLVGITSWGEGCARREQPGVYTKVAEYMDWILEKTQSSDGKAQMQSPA
Chain of Human plasma kallikrein (P03952 20-390 partner): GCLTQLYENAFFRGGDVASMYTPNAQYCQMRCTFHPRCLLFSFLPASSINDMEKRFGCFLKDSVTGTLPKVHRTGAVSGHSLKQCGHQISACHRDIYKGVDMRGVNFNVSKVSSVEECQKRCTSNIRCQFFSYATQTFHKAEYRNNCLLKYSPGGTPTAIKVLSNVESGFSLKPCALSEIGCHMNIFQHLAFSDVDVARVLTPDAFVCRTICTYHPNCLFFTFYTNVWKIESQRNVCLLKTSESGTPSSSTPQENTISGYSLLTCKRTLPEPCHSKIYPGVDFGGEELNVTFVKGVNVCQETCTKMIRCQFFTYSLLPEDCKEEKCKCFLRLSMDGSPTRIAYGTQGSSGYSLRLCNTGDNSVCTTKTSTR
Chain of human Factor XIa (P03951 388-625 limits assumed): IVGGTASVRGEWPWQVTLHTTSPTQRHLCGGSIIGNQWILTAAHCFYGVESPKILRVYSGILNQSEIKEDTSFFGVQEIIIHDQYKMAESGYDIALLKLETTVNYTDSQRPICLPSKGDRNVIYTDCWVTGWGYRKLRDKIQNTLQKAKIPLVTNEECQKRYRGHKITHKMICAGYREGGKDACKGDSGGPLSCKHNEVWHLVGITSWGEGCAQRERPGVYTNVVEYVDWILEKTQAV
Chain of human Factor XIa (P03951 19-387 partner limits assumed): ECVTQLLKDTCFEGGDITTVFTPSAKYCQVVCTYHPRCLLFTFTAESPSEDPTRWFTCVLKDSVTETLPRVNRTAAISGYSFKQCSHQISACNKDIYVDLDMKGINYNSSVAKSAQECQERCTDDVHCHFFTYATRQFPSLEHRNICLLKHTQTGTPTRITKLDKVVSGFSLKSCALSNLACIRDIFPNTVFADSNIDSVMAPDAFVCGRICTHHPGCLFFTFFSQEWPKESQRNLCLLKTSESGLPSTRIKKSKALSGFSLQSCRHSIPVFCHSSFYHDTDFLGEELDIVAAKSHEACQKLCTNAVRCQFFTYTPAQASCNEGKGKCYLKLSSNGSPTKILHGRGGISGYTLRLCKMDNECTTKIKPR

`Cc1nc([C@H](C)n2cc(NC(=O)c3nc(-c4c(C(F)F)ccc(Cl)c4F)cnc3C)cn2)ncc1N1C[C@H]2C[C@H]2C1=O` [Example 1, 6-(3-Chloro-6-(difluoromethyl)-2-fluorophenyl)-3-methyl-N-(1-((S)-1-(4-methyl-5-((1R,5S)-2-oxo-3-azabicyclo[3.1.0]hexan-3-yl)pyrimidin-2-yl)ethyl)-1H-pyrazol-4-yl)pyrazine-2-carboxamide]: the IC50 at Human plasma kallikrein is 0.9 nM; on human Factor XIa, over 10000 nM.
In the same order, the values of `Cc1cc(C(C)n2cc(NC(=O)c3cncc(-c4c(C(F)F)ccc(Cl)c4F)n3)cn2)cnc1N1C[C@H]2C[C@H]2C1=O` (single isomer, unassigned) [Example 67, 6-(3-Chloro-6-(difluoromethyl)-2-fluorophenyl)-N-(1-((R or S)-1-(5-methyl-6-((1R,5S)-2-oxo-3-azabicyclo[3.1.0]hexan-3-yl)pyridin-3-yl)ethyl)-1H-pyrazol-4-yl)pyrazine-2-carboxamide] are 2.1 nM and 389 nM.
In the case of `Cc1ncc(-c2c(C(F)F)ccc(Cl)c2F)nc1C(=O)Nc1cnn(C(C)c2cnc(N3CCC(O)C3=O)nc2)c1` (single isomer, unassigned) [Example 87, 6-(3-Chloro-6-(difluoromethyl)-2-fluorophenyl)-N-(1-((S or R)-1-(2-((R or S)-3-hydroxy-2-oxopyrrolidin-1-yl)pyrimidin-5-yl)ethyl)-1H-pyrazol-4-yl)-3-methylpyrazine-2-carboxamide], the values for the IC50 against Human plasma kallikrein and at human Factor XIa were 26.2 nM and over 10000 nM, respectively.
Take `Cc1ncc(-c2c(C(F)F)ccc(Cl)c2F)nc1C(=O)Nc1cnn(C(C)c2ncc(N3C[C@H]4C[C@H]4C3=O)c(C)c2C)c1` (single isomer, unassigned) [Example 242, 6-(3-Chloro-6-(difluoromethyl)-2-fluorophenyl)-N-(1-((R or S)-1-(3,4-dimethyl-5-((1R,5S)-2-oxo-3-azabicyclo[3.1.0]hexan-3-yl)pyridin-2-yl)ethyl)-1H-pyrazol-4-yl)-3-methylpyrazine-2-carboxamide]: the 50% inhibitory concentration (IC50) against Human plasma kallikrein is 0.8 nM; on human Factor XIa it was over 10000 nM.
In the same order, the values of `Cc1nc(N2C[C@H]3C[C@H]3C2=O)ncc1[C@H](CO)n1cc(NC(=O)c2cncc(-c3c(C(F)F)ccc(Cl)c3F)n2)cn1` [Example 160, 6-(3-Chloro-6-(difluoromethyl)-2-fluorophenyl)-N-(1-((R)-2-hydroxy-1-(4-methyl-2-((1R,5S)-2-oxo-3-azabicyclo[3.1.0]hexan-3-yl)pyrimidin-5-yl)ethyl)-1H-pyrazol-4-yl)pyrazine-2-carboxamide] are 249 nM and over 10000 nM.
In the same order, the values of `CC(c1cnc(N2C[C@H]3C[C@H]3C2=O)c2c1CCC2)n1cc(NC(=O)c2cncc(-c3c(C(F)F)ccc(Cl)c3F)n2)cn1` (single isomer, unassigned) [Example 141, 6-(3-Chloro-6-(difluoromethyl)-2-fluorophenyl)-N-(1-((S or R)-1-(1-((1R,5S)-2-oxo-3-azabicyclo[3.1.0]hexan-3-yl)-6,7-dihydro-5H-cyclopenta[c]pyridin-4-yl)ethyl)-1H-pyrazol-4-yl)pyrazine-2-carboxamide] are 1.1 nM and 906 nM.
Take `Cc1nc(N2C[C@@H]3C[C@@H]3C2=O)ncc1[C@@H](CO)n1cc(NC(=O)c2cncc(-c3c(C(F)F)ccc(Cl)c3F)n2)cn1` [Example 157, 6-(3-Chloro-6-(difluoromethyl)-2-fluorophenyl)-N-(1-((S)-2-hydroxy-1-(4-methyl-2-((1S,5R)-2-oxo-3-azabicyclo[3.1.0]hexan-3-yl)pyrimidin-5-yl)ethyl)-1H-pyrazol-4-yl)pyrazine-2-carboxamide]: the values for the 50% inhibitory concentration (IC50) against Human plasma kallikrein and on human Factor XIa were 1020 nM and over 10000 nM, respectively.
As for `Cc1nc(C(C)n2cc(NC(=O)c3cncc(-c4c(OC(F)F)ccc(Cl)c4F)n3)cn2)cnc1N1C[C@H]2C[C@H]2C1=O` (single isomer, unassigned) [Example 17, 6-(3-Chloro-6-(difluoromethoxy)-2-fluorophenyl)-N-(1-((R or S)-1-(6-methyl-5-((1R,5S)-2-oxo-3-azabicyclo[3.1.0]hexan-3-yl)pyrazin-2-yl)ethyl)-1H-pyrazol-4-yl)pyrazine-2-carboxamide], the IC50 turned out to be 0.7 nM on Human plasma kallikrein and 1740 nM against human Factor XIa.
For `Cc1cc(Cn2cc(NC(=O)c3nc(-c4c(C(F)F)ccc(Cl)c4F)cnc3C(C)O)cn2)nnc1N1C[C@H]2C[C@H]2C1=O` (single isomer, unassigned) [Example 208], the concentration for half-maximal inhibition (IC50) against Human plasma kallikrein was determined as 12.7 nM; on human Factor XIa it was 1050 nM.
With `Cc1ncc(-c2c(C(F)F)ccc(Cl)c2F)nc1C(=O)Nc1cnn(C(C)c2cnc(N3C[C@H]4C[C@H]4C3=O)c3c2OCO3)c1` (single isomer, unassigned) [Example 253, 6-(3-Chloro-6-(difluoromethyl)-2-fluorophenyl)-3-methyl-N-(1-((S or R)-1-(4-((1R,5S)-2-oxo-3-azabicyclo[3.1.0]hexan-3-yl)-[1,3]dioxolo[4,5-c]pyridin-7-yl)ethyl)-IH-pyrazol-4-yl)pyrazine-2-carboxamide], the IC50 at Human plasma kallikrein stood at 2.2 nM; against human Factor XIa, 733 nM.
The corresponding values for `CC(c1cnc(N2C[C@H]3C[C@H]3C2=O)c(F)c1)n1cc(NC(=O)c2nc(-c3c(C(F)F)ccc(Cl)c3F)cnc2COC(C)(C)C)cn1` (single isomer, unassigned) [Example 144, 3-(tert-Butoxymethyl)-6-(3-chloro-6-(difluoromethyl)-2-fluorophenyl)-N-(1-((R or S)-1-(5-fluoro-6-((1R,5S)-2-oxo-3-azabicyclo[3.1.0]hexan-3-yl)pyridin-3-yl)ethyl)-1H-pyrazol-4-yl)pyrazine-2-carboxamide] are 1.6 nM and over 10000 nM.
Regarding `Cc1ncc(-c2c(C(F)F)ccc(Cl)c2F)nc1C(=O)Nc1cnn(Cc2ccc(N3C[C@H]4C[C@H]4C3=O)nn2)c1` [Example 21, 6-(3-Chloro-6-(difluoromethyl)-2-fluorophenyl)-3-methyl-N-(1-((6-((1R,5S)-2-oxo-3-azabicyclo[3.1.0]hexan-3-yl)pyridazin-3-yl)methyl)-1H-pyrazol-4-yl)pyrazine-2-carboxamide], the IC50 against Human plasma kallikrein came to 38 nM; at human Factor XIa it was 7010 nM.
The corresponding values for `Cc1nc(N2C[C@H]3C[C@H]3C2=O)ncc1[C@@H](C)n1cc(NC(=O)c2cncc(-c3c(C(F)F)ccc(Cl)c3F)n2)cn1` [Example 23, 6-(3-Chloro-6-(difluoromethyl)-2-fluorophenyl)-N-(1-((R)-1-(4-methyl-2-((1R,5S)-2-oxo-3-azabicyclo[3.1.0]hexan-3-yl)pyrimidin-5-yl)ethyl)-1H-pyrazol-4-yl)pyrazine-2-carboxamide] are 48.7 nM and 7600 nM.
Turning to `Cc1cc(N2C[C@H]3C[C@H]3C2=O)ccc1C(C)n1cc(NC(=O)c2nc(-c3c(C(F)F)ccc(Cl)c3F)cnc2C)cn1` (single isomer, unassigned) [Example 97, 6-(3-Chloro-6-(difluoromethyl)-2-fluorophenyl)-3-methyl-N-(1-((S or R)-1-(2-methyl-4-((1R,5S)-2-oxo-3-azabicyclo[3.1.0]hexan-3-yl)phenyl)ethyl)-1H-pyrazol-4-yl)pyrazine-2-carboxamide], the figures for the IC50 on Human plasma kallikrein and at human Factor XIa were 1.3 nM and over 10000 nM, respectively.
The corresponding values for `Cc1nc(C(C)n2cc(NC(=O)c3cncc(-c4c(C(F)(F)F)ccc(Cl)c4F)n3)cn2)cnc1N1C[C@H]2C[C@H]2C1=O` (single isomer, unassigned) [Example 19, 6-(3-Chloro-2-fluoro-6-(trifluoromethyl)phenyl)-N-(1-((R or S)-1-(6-methyl-5-((1R,5S)-2-oxo-3-azabicyclo[3.1.0]hexan-3-yl)pyrazin-2-yl)ethyl)-1H-pyrazol-4-yl)pyrazine-2-carboxamide] are 3.7 nM and over 10000 nM.
The corresponding values for `CC(c1cnc(N2C[C@H]3C[C@H]3C2=O)c2c1OCO2)n1cc(NC(=O)c2cncc(-c3c(C(F)F)ccc(Cl)c3F)n2)cn1` (single isomer, unassigned) [Example 250, 6-(3-Chloro-6-(difluoromethyl)-2-fluorophenyl)-N-(1-((R or S)-1-(4-((1R,5S)-2-oxo-3-azabicyclo[3.1.0]hexan-3-yl)-[1,3]dioxolo[4,5-c]pyridin-7-yl)ethyl)-1H-pyrazol-4-yl)pyrazine-2-carboxamide] are 3.2 nM and 1320 nM.
Turning to `Cc1nc(C(C)n2cc(NC(=O)c3cncc(-c4c(C(F)F)ccc(Cl)c4F)n3)cn2)cnc1N1C[C@H]2C[C@H]2C1=O` (single isomer, unassigned) [Example 12, 6-(3-Chloro-6-(difluoromethyl)-2-fluorophenyl)-N-(1-((S or R)-1-(6-methyl-5-((1R,5S)-2-oxo-3-azabicyclo[3.1.0]hexan-3-yl)pyrazin-2-yl)ethyl)-1H-pyrazol-4-yl)pyrazine-2-carboxamide], the figures for the IC50 against Human plasma kallikrein and against human Factor XIa were 1.9 nM and 1160 nM, respectively.
The corresponding values for `Cc1cc(C(C)n2cc(NC(=O)c3cc(-c4c(C(F)F)ccc(Cl)c4F)c[n+]([O-])c3)cn2)cnc1N1C[C@H]2C[C@H]2C1=O` (single isomer, unassigned) [Example 106, 5-(3-Chloro-6-(difluoromethyl)-2-fluorophenyl)-N-(1-((S or R)-1-(5-methyl-6-((1R,5S)-2-oxo-3-azabicyclo[3.1.0]hexan-3-yl)pyridin-3-yl)ethyl)-1H-pyrazol-4-yl)-1-(l1-oxidanyl)-114-pyridine-3-carboxamide] are 1.4 nM and 103 nM.
In the same order, the values of `Cc1nc(Cn2cc(NC(=O)c3cncc(-c4c(C(F)F)ccc(Cl)c4F)n3)cn2)ccc1N1C[C@H]2C[C@H]2C1=O` [Example 64, 6-(3-Chloro-6-(difluoromethyl)-2-fluorophenyl)-N-(1-((6-methyl-5-((1R,5S)-2-oxo-3-azabicyclo[3.1.0]hexan-3-yl)pyridin-2-yl)methyl)-1H-pyrazol-4-yl)pyrazine-2-carboxamide] are 3.4 nM and over 10000 nM.
